Experimental data: PubChem BioAssay AID1959 (Broad Institute, 2009)
Active and inactive are the calls of the source.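 The calls were made as follows: active = growth-inhibition EC50 no more than tenfold above the top tested dose; inconclusive = flat fit between 30% and 70% inhibition, or unreliable fit; inactive = EC50 more than tenfold above the top tested dose.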

Tested on: E. coli NEB5alpha growth, BacTiter-Glo luminescence, 4 h
Test: Escherichia coli growth inhibition, dose response, counter-screen for MEX-5/POS-1 RNA-binding inhibitor project, luminescence, NEB5alpha (AID 1959);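 also: pUC19-transformed ampicillin-resistant cells grown in LB with ampicillin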

SMILES | EC50
CN1C(=O)/C(=C/c2ccc(N3CCCCCC3)o2)C(=O)NC1=S | > 11 µM (inactive)
CCOC(=O)C1Nc2ccc(OC(F)(F)F)cc2C2C=CCC12 (centres undefined) | > 11 µM (inactive)
CCOC(=O)N1CCN(c2nc3ccccc3nc2C(C#N)S(=O)(=O)c2ccc(C)cc2)CC1 (centres undefined) | > 11 µM (inactive)
CC(=O)c1cc(NC(=O)c2ccc(Cl)cc2)c(=O)oc1/C=C/N(C)C | > 11 µM (inactive)
O=C(NC1CC1)C1Nc2ccc(OC(F)(F)F)cc2C2C=CCC12 (centres undefined) | > 11 µM (inactive)
CN(C)c1ccc(/C=N/NC2=NS(=O)(=O)c3ccccc32)cc1 | > 11 µM (inactive)
COc1ccc(C2C(C#N)=C(N)OC3=C2C(=O)CC(C)(C)C3)cc1Cn1nc(C)c([N+](=O)[O-])c1C (centres undefined) | > 11 µM (inactive)
CCOc1ccc(S(=O)(=O)Nc2cc(Sc3ncn[nH]3)c3oc(=O)sc3c2)cc1 | > 11 µM (inactive)
N#C/C(=C\c1cc(O)c(O)c(O)c1)C(N)=O | > 11 µM (inactive)
CC1=C(C#N)C(=O)NC(=O)/C1=C\c1ccc(-c2cc(C)c(C)cc2[N+](=O)[O-])o1 | > 11 µM (inactive)
CC1=CC(=C2N=C(c3ccccc3)OC2=O)C=C(C)O1 | > 11 µM (inactive)
CCc1cc(C(=O)Nc2ccc(OC)nc2)sc1C | > 11 µM (inactive)
C=CCn1c(=S)[nH]c2nc3c(cc2c1=O)COC(C)(C)C3 | > 11 µM (inactive)
Cn1c(=O)c2[nH]c(N=NNc3ccccc3F)nc2n(C)c1=O | > 11 µM (inactive)
CC1CN(c2nc3ccccc3nc2C(C#N)C(=O)NC2CCCCC2)CC(C)O1 (centres undefined) | > 11 µM (inactive)
CCCC1Nc2ccc(C(=O)O)cc2C2C=CCC12 (centres undefined) | > 11 µM (inactive)
O=C1Nc2cc(Cl)cnc2N2CCCC12 (centres undefined) | > 11 µM (inactive)
O=C(COC(=O)CCc1c[nH]c(=O)[nH]1)Nc1ccccc1Cl | > 11 µM (inactive)
FC(F)(F)c1ccc2c(c1)C1C=CCC1C(c1ccncc1)N2 (centres undefined) | > 11 µM (inactive)
CCOC(=O)[C@]1(C#N)[C@@H]2C=CC(C(C)=O)=CN2[C@@H](C(N)=O)[C@@H]1c1ccsc1 | > 11 µM (inactive)
CC(/C=C1\N=C(SCc2ccccc2Cl)SC1=O)=C\c1ccccc1 | > 11 µM (inactive)
CC(=O)Nc1ccc(S(=O)(=O)NNC(=O)C(=O)NNc2ccccn2)cc1 | > 11 µM (inactive)
COc1ccc(C(=O)Nc2nnc(CC(=O)N/N=C/c3ccc(O)cc3O)s2)cc1 | > 11 µM (inactive)
CC(C)OC(=O)c1nn2c(C(F)(F)F)cc(-c3ccc(Br)o3)nc2c1Br | > 11 µM (inactive)
CCOc1ccc(N2C(=O)S/C(=C\c3cccn3C)C2=O)cc1 | > 11 µM (inactive)

SMILES | EC50
CC(=O)c1c(O)cc(O)cc1CC(=O)O | > 11 µM (inactive)
CN1C(=O)/C(=C/c2ccc(-c3ccccc3[N+](=O)[O-])o2)SC1=Nc1ccc(Cl)c(C(=O)O)c1 | > 11 µM (inactive)
O=C(c1coc(=O)c(Br)c1)N1CCCc2ccccc21 | > 11 µM (inactive)
CCCN1C(=O)/C(=C/c2ccc(C)o2)SC1=Nc1ccc(OC)cc1 | > 11 µM (inactive)
COc1ccc2c(c1)C1C=CCC1C(c1cc3c(cc1Br)OCO3)N2 (centres undefined) | > 11 µM (inactive)
Cn1c(O)c(/C=C2\C=Nc3ccc(Br)cc32)c(=O)n(C)c1=O | > 11 µM (inactive)
Cc1ccc(N2C(=O)NC(=O)/C(=C/c3cnn(-c4ccc(C)cc4)c3)C2=O)cc1 | > 11 µM (inactive)
CCc1cc[n+](-c2nc([O-])sc2C=O)cc1 | > 11 µM (inactive)
Cc1c(Cl)cccc1NC(=S)N1CCN(C(=O)C2CCCO2)CC1 (centres undefined) | > 11 µM (inactive)
NC(N)=NS(=O)(=O)c1ccc(NC(=S)NC(=O)/C=C/c2cccs2)cc1 | > 11 µM (inactive)
Cc1ccc2nc3sc(C(=O)N4CCCc5ccccc54)c(N)c3cc2c1 | > 11 µM (inactive)
CC(=O)Nc1ccc(N/C=C/C(=O)c2ccc(C)o2)cc1 | > 11 µM (inactive)
CC1=C(C(=O)OCc2ccccc2)C(c2ccccc2[N+](=O)[O-])NC(=O)N1C (centres undefined) | > 11 µM (inactive)
CCOc1ccc(/C=c2\sc3nc(-c4ccco4)nn3c2=O)cc1OCC | > 11 µM (inactive)
NC1=CC(=O)c2cccc3cccc1c23 | > 11 µM (inactive)
C/C(CCc1oc2ccc(Cl)cc2c1-c1ccc(C)o1)=N\O | > 11 µM (inactive)
Cc1ccc(NC(=O)c2sc3nc4c(c(-c5ccco5)c3c2N)CCC4)cc1 | > 11 µM (inactive)
CSCC(C)N1CCC(Oc2cccc(C(=O)NCc3ccccn3)c2)CC1 (centres undefined) | > 11 µM (inactive)
Cc1sc(-n2c(C)cc(C=C3C(=O)NC(=O)NC3=O)c2C)c(C#N)c1C | > 11 µM (inactive)
Cc1cc(C(=O)O)ccc1-c1ccc(/C=C2\NC(=O)N(Cc3ccc(F)cc3)C2=O)o1 | > 11 µM (inactive)
C=CCOc1cccc(C2C(C(=O)c3cc4ccccc4o3)=C(O)C(=O)N2c2cc(C)on2)c1 (centres undefined) | > 11 µM (inactive)
O=C(/C=C/c1ccco1)NC(=S)NNC(=O)c1ccco1 | > 11 µM (inactive)
CNCc1ccccc1Sc1ccc(O)c(O)c1 | > 11 µM (inactive)
N#Cc1c(N)nc(SCc2ccccc2)c(C#N)c1-c1ccco1 | > 11 µM (inactive)
CC(C)OCCCn1c(=NC(=O)c2cccs2)c(C#N)cc2c(=O)n3ccccc3nc21 | > 11 µM (inactive)

SMILES | EC50
COC(=O)c1cc(C(=O)OC)cc(-n2c(C)cc(C(=O)COC(=O)CNS(=O)(=O)c3ccc(C)cc3)c2C)c1 | > 11 µM (inactive)
Cc1ccc(-c2ccc(CCC(=O)O)n2-c2ccc(C(=O)O)cc2)cc1 | > 11 µM (inactive)
CN1C(=O)C(=Cc2ccccc2OS(=O)(=O)c2ccccc2)C(=O)N(C)C1=O | > 11 µM (inactive)
COc1cc2c3nnc(-c4ccccc4)c-3cn(Cc3ccc(F)cc3)c2cc1OC | > 11 µM (inactive)
O=C(Cn1cncn1)N/N=C/c1c2ccccc2cc2ccccc12 | > 11 µM (inactive)
Cc1cc(/C=C2/C(=O)NC(=O)N(c3ccccc3)C2=O)c(C)n1-c1ccc(F)cc1 | > 11 µM (inactive)
O=C(Nc1ccccc1F)c1coc(=O)c(Br)c1 | > 11 µM (inactive)
Cc1ccc(S(=O)(=O)NNc2nc3ccccc3nc2C(F)(F)F)cc1 | > 11 µM (inactive)
C=CCn1ccc(=NC=C(C#N)C#N)c2ccccc21 | > 11 µM (inactive)
O=C(NNC(=O)c1ccccc1[N+](=O)[O-])c1cnccn1 | > 11 µM (inactive)
NS(=O)(=O)c1ccc2c(c1)C1C=CCC1C(C1CC=CCC1)N2 (centres undefined) | > 11 µM (inactive)
NC(=O)Cn1cc(C=C2C(=O)NC(=O)NC2=O)c2ccccc21 | > 11 µM (inactive)
Oc1c(Br)cc(Br)c(/C=N/n2c(-c3ccccc3)n[nH]c2=S)c1Br | > 11 µM (inactive)
O=c1[nH]c(=O)n(-c2ccc(F)cc2)c(O)c1C=Nc1ccccc1N1CCCC1 | > 11 µM (inactive)
COc1cc(NC(=O)CSc2nc3ncnc(N)c3[nH]2)c(C(=O)O)cc1OC | > 11 µM (inactive)
COc1ccc(OC)c(N2C(=O)/C(=C/c3ccco3)C(=O)NC2=S)c1 | > 11 µM (inactive)
CC1CCN(c2nc3ccccc3nc2C(C#N)C(=O)NC2CCCCC2)CC1 (centres undefined) | > 11 µM (inactive)
O=C(c1ccco1)N1CCc2ccccc21 | > 11 µM (inactive)
COc1ccc(C(=O)N=c2c(C#N)cc3c(=O)n4cccc(C)c4nc3n2Cc2ccco2)cc1 | > 11 µM (inactive)
CC1=NN(C(N)=S)C(=O)C1N=Nc1cccc(C(=O)O)c1 (centres undefined) | > 11 µM (inactive)
Cc1ccc(/C=C/C(=O)O)cc1S(=O)(=O)N1CCCCC1 | > 11 µM (inactive)
N#CC1=C(N)OC2=C(C(=O)CCC2)C1c1cc2c(cc1Br)OCO2 (centres undefined) | > 11 µM (inactive)
CCc1cc(=O)oc2cc(C)cc(OC(C)C(=O)O)c12 (centres undefined) | > 11 µM (inactive)
CCOC(=O)C1=C(C)OC(N)=C(C#N)C1c1ccc(O)c(OC)c1 (centres undefined) | > 11 µM (inactive)
